Measurements published in US20240082250A1, “NEDDYLATION INHIBITION FOR USE IN THE TREATMENT OF HUMAN IMMUNODEFICIENCY VIRUS (HIV) INFECTION” (priority 2022, published 2024).

Experiments:
[1] = test system: Cullin 2 (CUL2) neddylation; assay: Immunoblot for Cullin 2 (CUL2) neddylation in ACH2 cells; assay type: cell-based; set-up: dose or concentration left out as unconfirmed; settings: MLN, with and without TNFa reactivation
HIV = assay: Infectivity of HIV reactivated from ACH2 cells, TZM-bl reporter cell luciferase assay; assay type: cell-based; settings: ACH2 cells treated with MLN 100 nM or 200 nM before and during LRA (TNFa, PMAi, JQ1), vs DMSO, p24-normalized
Experimental: (§1) (B) MLN treatment of ACH2 cells before and during TNFa provirus reactivation increases the amount of A3G incorporated into virions, a strong candidate mechanism for decreased infectivity shown in (A). Virions from ACH2 cell supernatant were pelleted over a 20% sucrose cushion. […] A3G signal (black bars) and p24 signal (grey bars) from n=3 experiments are quantified on the right (Panel 2 in B).
Virus infectivity was determined by infecting TZM-bl reporter cell line with p24-equivalent amounts of culture supernatant fluid (e.g., normalized to the same p24 amount, as a surrogate for inoculating the same number of virions) from cells pretreated with MLN or DMSO control and reactivated by the 3 LRAs). Supernatant infectivity was measured via luciferase activity in the form of […] (RFU) where higher RFU signifies greater infectivity. Average RFU values were normalized to the control condition (LRA alone without MLN treatment) such that maximum infectivity seen in that control condition is set to 100%.

[2] = test system: A3G incorporated into virions; assay: Immunoblot of A3G in virions pelleted from ACH2 supernatant; assay type: cell-based, HIV; settings: ACH2 cells; MLN before and during TNFa reactivation; immunoblot of viral pellets, n=3
Description: as §1
Virions from ACH2 cell supernatant were pelleted over a 20% sucrose cushion. […] A3G signal (black bars) and p24 signal (grey bars) from n=3 experiments are quantified on the right (Panel 2) in FIG. 3B.

A3G [3] = assay: A3G LMM/HMM distribution, sucrose density gradient and immunoblot, H9 cells; assay type: cell-based; settings: 200 nM MLN for 4 or 6 days
Experimental: (§2) A3G low molecular mass forms (LMM) (fractions 1-5) and HMM complexes (fractions 7-12) are visualized by immunoblotting of fractions collected after density gradient centrifugation of a 5-40% sucrose gradient. […] (B) CD4+CD45RO+ memory T cells were isolated from healthy donors; cells were then stimulated with CD3/28 Abs (*) and cultured for 4 days with DMSO, 100 nM, or 200 nM MLN before density gradient centrifugation and immunoblotting of gradient fractions.

A3G [4] = assay: A3G LMM/HMM distribution, sucrose density gradient and immunoblot, CD4+CD45RO+ memory T cells; assay type: cell-based; settings: CD4+CD45RO+ memory T cells from healthy donors, CD3/28 stimulated; 4 days, 100 nM or 200 nM MLN vs DMSO
Experimental: as §2

HIV capsid antigen (p24) [5] = assay: Extracellular p24 ELISA of ACH2 culture supernatant after provirus reactivation; assay type: cell-based; settings: ACH2 cells; MLN before and during LRAs (TNFa 10 ng/mL, PMA/i, JQ1), n=3 each
Experimental: (§3) MLN decreases reactivation of latent provirus, as shown in VIF+, replication-competent provirus, from the latently infected ACH2 T cell line based on HIV capsid p24 amounts in cell culture supernatant fluid and intracellularly after 3 different LRAs: tumor necrosis factor alpha (TNFa) at 10 ng/mL; PMA/ionomycin (PMAi) at 405 pM phorbol 12-myristate 13-acetate (PMA) and 6.7 nM ionomycin (eBiosciences™ stimulation cocktail); and JQ1 at 100 nM (FIGS. 5 and 6). […] MLN reduces intracellular p24 production from ACH2 1 cells treated with TNFa, PMAi, and JQ1, compared to DMSO control (FIG. 6A). […] HIV promoter-driven RNA is also shown to be decreased by MLN before/during TNFa or PMAi (FIG. 7). […] ACH2 cells were pretreated for 6 hours with DMSO, or MLN at […], and then reactivated with 10 ng/mL TNFa or PMA/ionomycin.

HIV capsid antigen (p24) [6] = assay: Immunoblot of p24 in reactivated virions pelleted from ACH2 supernatant; assay type: cell-based; settings: LRA-exposed ACH2 cells; MLN vs control
Experimental: as §3

HIV capsid antigen (p24) [7] = assay: Immunoblot of p24 in reactivated virions pelleted from J-Lat 6.3 supernatant; assay type: cell-based; settings: LRA-exposed J-Lat 6.3 cells; MLN vs control
intracellular p24 [8] = assay: Intracellular p24 production in ACH2 cells exposed to LRAs; assay type: cell-based, HIV; settings: ACH2 cells treated with TNFa (n=4), PMA/i (n=4), JQ1 (n=3); vs DMSO control
Description: (§4) (B) MLN reduces intracellular p24 production from J-Lat 6.3 cells exposed to TNFa, as well as from ACH2 cells exposed to TNFa. […] (C) Six hour treatment of J-Lat cells (both J-Lat 6.3 and J-Lat 11.1) with MLN before and during LRA exposure reduces HIV promoter-driven GFP expression after exposure to TNFa, PMAi and JQ1.
as §3

intracellular p24 [9] = assay: Intracellular p24 production in J-Lat 6.3 cells exposed to TNFa; assay type: cell-based, HIV
Description: as §4

[10] = test system: HIV promoter-driven GFP expression; assay: HIV promoter-driven GFP expression in J-Lat 6.3 cells; assay type: cell-based; settings: six hour MLN treatment before and during LRA exposure (TNFa, PMAi, JQ1)
Description: as §4, §3

[11] = test system: HIV promoter-driven GFP expression; assay: HIV promoter-driven GFP expression in J-Lat 11.1 cells; assay type: cell-based; settings: six hour MLN treatment before and during LRA exposure (TNFa, PMAi, JQ1)
Description: as §4, §3

HIV gag RNA = HIV gag RNA RT-qPCR in ACH2 cells; assay type: cell-based; settings: MLN at before and during TNFa 10 ng/mL or PMA/ionomycin, 48 hours after reactivation, vs DMSO
Experimental: Gag RNA is reduced in ACH2 cells as measured by RT-qPCR 48 hours after reactivation. ACH2 cells were treated with either DMSO or MLN (at […]) before and during exposure to either 10 ng/mL TNFa (plot on left) or 405 pM PMA and 6.7 nM ionomycin (eBiosciences stimulation cocktail) (plot on right); 4 separate ACH2 cell cultures were used for each plot's experiment.
as §3

ACH2 cells = assay: Annexin V / SYTOX Green apoptosis flow cytometry in ACH2 cells; assay type: cell-based; settings: 200 nM MLN 6 hours before and during 10 ng/mL TNFa, 16 hours post-TNFa
Experimental: (§5) ACH2 cells were pretreated for 6 hours with 200 nM MLN prior to provirus reactivation with 10 ng/mL TNFa. 16 hours post-TNFa addition cells were collected; apoptosis was measured via flow cytometry by staining for Annexin V and SYTOX Green DNA intercalant. […] Data was collected 24 hours after TNFa addition. (C) CD4+ T cells from 3 healthy donors were activated for 48 hrs with anti-CD3/CD28 antibodies. Cells were then treated with 200 nM of MLN and apoptosis was measured after 6, 16, and 24 hrs of drug treatment using flow cytometry. * p<0.05 *** p=0.0002 (D) Expression of RNA encoding cell cycling and apoptotic targets assessed before in ACH2 cells was determined in primary CD4 T cells via RT-qPCR. Gene expression was normalized to 18S control ** p=0.0033 **** p<0.0001 A&B) n=3 donors.
(§6) ACH2 cells were treated with 200 nM MLN for 6 hours before and then during reactivation with 10 ng/mL TNFa. 16 hours post-TNFa addition, cells were collected and percentage of apoptotic cells increased with MLN treatment upon reactivation (FIG. 8A).

NOXA, PUMA, p21, p53 RNA = assay: RT-qPCR for apoptotic targets and cell cycle indicators in ACH2 cells; assay type: cell-based; settings: 200 nM MLN before and during 10 ng/mL TNFa, 24 hours after TNFa
Experimental: as §5, §6

primary CD4+ T cells = assay: Apoptosis flow cytometry in anti-CD3/CD28-activated uninfected primary CD4+ T cells; assay type: cell-based; settings: uninfected CD4+ T cells from 3 healthy donors, anti-CD3/CD28 activated 48 hrs; 200 nM MLN; at 16 hours
Experimental: as §5, §6

PUMA, NOXA, p21, p53 RNA = assay: RT-qPCR for apoptotic targets and cell cycle indicators in primary CD4 T cells; assay type: cell-based; settings: MLN
Experimental: as §5, §6

[12] = test system: Cullin RING Ligase (CRL^Vif)-mediated degradation of APOBEC3G (A3G); settings: ex vivo, de novo HIV infections; previously reported; cited from earlier work

Compound: NS(=O)(=O)OC[C@@H]1C[C@@H](n2ccc3c(N[C@H]4CCc5ccccc54)ncnc32)C[C@@H]1O [MLN, pevonedistat]
- Cullin 2 (CUL2) neddylation [1]: inhibits
- infectivity of HIV in culture supernatant fluid (HIV): less infectious
- amount of A3G incorporated into virions [2]: increases
- intracellular distribution of A3G (LMM form vs HMM complexes) (A3G [3]): shift to LMM form
- intracellular distribution of A3G (LMM form vs HMM complexes) (A3G [4]): shift to LMM form
- extracellular p24 antigen in culture supernatant fluid (ELISA) (HIV capsid antigen (p24) [5]): significantly reduced
- p24 antigen in pelleted reactivated virions (immunoblot) (HIV capsid antigen (p24) [6]): reduced
- p24 antigen in pelleted reactivated virions (immunoblot) (HIV capsid antigen (p24) [7]): reduced
- intracellular p24 production (intracellular p24 [8]): significantly reduces
- intracellular p24 production (intracellular p24 [9]): reduces
- HIV promoter-driven GFP expression [10]: reduces
- HIV promoter-driven GFP expression [11]: reduces
- HIV gag RNA expression (RT-qPCR) (HIV gag RNA): reduced
- percentage of cells dying from apoptosis (Annexin V) (ACH2 cells): increases
- p53 RNA expression (NOXA, PUMA, p21, p53 RNA): does not increase
- relative expression of RNA encoding NOXA (NOXA, PUMA, p21, p53 RNA): increased
- relative expression of RNA encoding PUMA (NOXA, PUMA, p21, p53 RNA): increased
- relative expression of RNA encoding p21 (NOXA, PUMA, p21, p53 RNA): increased
- apoptosis-mediated cell death (Annexin V) (primary CD4+ T cells): increase
- p53 RNA expression (PUMA, NOXA, p21, p53 RNA): did not significantly increase
- NOXA gene expression (RT-qPCR) (PUMA, NOXA, p21, p53 RNA; normalized to 18S): increase
- PUMA gene expression (RT-qPCR) (PUMA, NOXA, p21, p53 RNA; normalized to 18S): increase
- p21 expression (RT-qPCR) (PUMA, NOXA, p21, p53 RNA; normalized to 18S): increase
- CRL^Vif-mediated degradation of APOBEC3G (A3G) [12]: block
